# Test results taken from US20110223642A1, “METHOD FOR INHIBITING BACTERIA GROWTH DURING ETHANOL FERMENTATION” (priority 2010, published 2011).
# Tested on: gram positive bacteria
# Experiment: Inhibition of gram positive bacteria growth in corn mash media
# Assay type: cell-based
# Conditions: typical corn mash media
# Description: If added just to a propagator the isopellets should be diluted down to 2 to 20 ppm in a fermenter. The hop acids employed are not limited to isomerized hop acids but can also be stabilized unisomerized hop pellets. The stabilized hop pellet, can be isomerized into isoalpha acids once placed into 70° C. or hotter hot water for thirty or more minutes. Once this isomerization is completed the mixture can be added to the yeast propagator or fermenter. The unexpected results include reduced levels of isoalpha acid required to inhibit gram positive bacteria growth, better antibacterial protection toward the end of fermentation, and increased yeast alcohol tolerance. Typically about 15 ppm of isoalpha acid is required to inhibit most gram positive bacteria growth in a typical corn mash media; however, we discovered that isomerized hop pellets made in accordance with the present invention can inhibit bacteria growth at an isoalpha acid dosage of about 12 ppm. While not wishing to be bound by theory, it is believed iso-pellets made in accordance with the present invention also contain beta acids, which are very effective at inhibiting gram positive bacteria growth. Unfortunately beta acids ordinarily are not soluble in corn mash or cereal fermentations, and thus their antibacterial effect is worthless. […]
substance,measurement,value
isoalpha acid,isoalpha acid dosage required to inhibit gram positive bacteria growth,about 15 ppm
